Results as given in patent US11643439B2, “Multi-target compound with anticoagulation and antiplatelet activity, preparation method therefor, and use thereof” (SHAANXI MICOT TECHNOLOGY LIMITED COMPANY, priority 2015, dated 2023).
Marks after values point to notes of the source that are not given here.

Key:
[1] = system: blood coagulation function; assay: APTT in rabbits, intravenous maintenance administration; format: in vivo, rabbit
Procedure: (§1) 2. Grouping and administration: 10 rabbits were randomly divided into 3 groups, 2 to 3 rabbits per group. 1) Sham operation group (NS): Intravenous injection of the same volume of physiological saline, with the same operation method as above; 2) polypeptide 2 administration group: 8.0 mg/kg+20.0 mg/kg/h; 3) positive control enoxaparin group: 50 U/kg+150 U/kg/h. According to the body weight in kilograms of the rabbits, the first dose of the drug to be tested was dissolved in 2 mL of physiological saline for single bolus injection. The maintaining dose was dissolved in 9 ml of physiological saline, and placed in a double-channel micro-injection pump, which was dripped off within 90 minutes at a dripping speed of […]. The sham operation group was administered with the same volume of physiological saline.
(§2) 4.2 Determination of blood coagulation function: Blood samples were taken and the blood function (PT, APTT) was determined at 0 min before administration, at points of 30 min, 60 min, 90 min after administration, and at points of 60 min, 120 min and 180 min after termination of administration, using a platelet-aggregation coagulation factor analyzer. Blood samples were centrifuged at 3510 rpm for 8 min to obtain platelet poor plasma (PPP). Reagent reconstruction and preservation were performed according to the operation requirements of the kit. Immediately after each blood sample was placed into a test cup and then added with PT, TT and APTT reagents, the test was started. After the test was completed, results were recorded.

[2] = system: whole blood coagulation; assay: ACT in rabbits, intravenous maintenance administration; format: in vivo, rabbit
Procedure: as §1, with “saline. […]” for “saline.”

[3] = system: blood coagulation function; assay: TT in rabbits, intravenous maintenance administration; format: in vivo, rabbit
Procedure: as §1, §2

[4] = system: blood coagulation function; assay: PT in rabbits, intravenous maintenance administration; format: in vivo, rabbit
Procedure: as §1, §2

[5] = system: thrombin-induced pulmonary embolism; assay: Thrombin-induced pulmonary embolism in mice; format: in vivo, mouse; conditions: thrombin 1500 u/kg, tail iv 250 IU/kg
[6] = iv 8.0 + 20.0 (mg/kg+mg/kg/h), Administration 30 min
[7] = iv 8.0 + 20.0 (mg/kg+mg/kg/h), Administration 60 min
[8] = iv 8.0 + 20.0 (mg/kg+mg/kg/h), Administration 90 min
[9] = iv 8.0 + 20.0 (mg/kg+mg/kg/h), Before administration
[10] = iv 8.0 + 20.0 (mg/kg+mg/kg/h), Termination 60 min
[11] = iv 8.0 + 20.0 (mg/kg+mg/kg/h), Termination 120 min
[12] = iv 8.0 + 20.0 (mg/kg+mg/kg/h), Termination 180 min
[13] = iv 50 U + 150 U, Administration 30 min
[14] = iv 50 U + 150 U, Administration 60 min
[15] = iv 50 U + 150 U, Administration 90 min
[16] = iv 50 U + 150 U, Before administration
[17] = iv 50 U + 150 U, Termination 60 min
[18] = iv 50 U + 150 U, Termination 120 min
[19] = iv 50 U + 150 U, Termination 180 min

For “D-Phe Pro Arg Pro Gly Gly Gly Gly Asn Gly Asp Phe Glu Glu Ile Pro Glu Glu Tyr Leu Glu Ala Ala Ala Lys Cys Har Gly Asp Trp Pro Cys [Polypeptide 2]”, the APTT [1, 6] was 38.0 ± 2.3 S, the APTT [1, 7] was 32.5 ± 1.0 S and the APTT [1, 8] was 34.1 ± 3.7 S. It also gave an APTT [1, 9] of 22.7 ± 1.7 S, an APTT [1, 10] of 35.7 ± 14.0 S and an APTT [1, 11] of 33.2 ± 2.7 S. It also gave an APTT [1, 12] of 23.3 ± 1.6 S, an ACT [2, 6] of 330.0 ± 63.6 S and an ACT [2, 7] of 277.5 ± 31.8 S. It also gave an ACT [2, 8] of 300.0 ± 63.6 S, an ACT [2, 9] of 217.5 ± 95.5 S and an ACT [2, 11] of 172.5 ± 31.8 S. For the same substance, the ACT [2, 12] was 112.5 ± 74.2 S, the TT [3, 9] was 26.8 ± 15.5 S and the TT [3, 11] was 150.6 ± 3.5 S. The TT [3, 12] was 28.2 ± 1.9 S, the PT [4, 6] was 12.7 ± 0.5 S and the PT [4, 7] was 9.4 ± 2.0 S. It also gave a PT [4, 8] of 11.6 ± 1.3 S, a PT [4, 9] of 7.7 ± 1.8 S and a PT [4, 10] of 7.7 ± 0.0 S. It also gave a PT [4, 11] of 7.1 ± 1.8 S and a PT [4, 12] of 7.4 ± 1.3 S.

In the case of Enoxaparin, the APTT [1, 13] is reported as 32.4 S, the APTT [1, 14] is reported as 36.2 S and the APTT [1, 15] is reported as 38.3 S. It also gave an APTT [1, 16] of 25.7 S, an APTT [1, 17] of 30.5 S and an APTT [1, 18] of 62.1 S. It also gave an APTT [1, 19] of 41.6 S, an ACT [2, 13] of 225.0 S and an ACT [2, 14] of 375.0 S. The ACT [2, 15] was 270.0 S, the ACT [2, 16] was 180.0 S and the ACT [2, 17] was 210 S. It also gave an ACT [2, 18] of 195.0 S, an ACT [2, 19] of 225.0 S and a TT [3, 13] of over 180 s. The TT [3, 14] was over 180 s, the TT [3, 15] was 18.9 S and the TT [3, 16] was 20.5 S. It also gave a TT [3, 17] of 21.0 S, a TT [3, 18] of 29.0 S and a TT [3, 19] of 24.0 S. For the same substance, the Number of platelets [5] was 459.83 ± 49.66 ×10^9, the Mortality rate ([5]; within 15 min) was 10**^## % and the PT [4, 13] was 10.4 S. The PT [4, 14] was 10.4 S, the PT [4, 15] was 11.3 S and the PT [4, 16] was 9.4 S. For the same substance, the PT [4, 17] was 8.2 S, the PT [4, 18] was 8.1 S and the PT [4, 19] was 7.6 S.
